The assay concerns the target T1, full-length human PKCι (Homo sapiens, UniProt P41743).
T1 construct: Recombinant, full-length human PKCι expressed in Sf21 insect cells is also commercially available; purchased; host or cells: Sf21 insect cells
T1 sequence (P41743 1-596): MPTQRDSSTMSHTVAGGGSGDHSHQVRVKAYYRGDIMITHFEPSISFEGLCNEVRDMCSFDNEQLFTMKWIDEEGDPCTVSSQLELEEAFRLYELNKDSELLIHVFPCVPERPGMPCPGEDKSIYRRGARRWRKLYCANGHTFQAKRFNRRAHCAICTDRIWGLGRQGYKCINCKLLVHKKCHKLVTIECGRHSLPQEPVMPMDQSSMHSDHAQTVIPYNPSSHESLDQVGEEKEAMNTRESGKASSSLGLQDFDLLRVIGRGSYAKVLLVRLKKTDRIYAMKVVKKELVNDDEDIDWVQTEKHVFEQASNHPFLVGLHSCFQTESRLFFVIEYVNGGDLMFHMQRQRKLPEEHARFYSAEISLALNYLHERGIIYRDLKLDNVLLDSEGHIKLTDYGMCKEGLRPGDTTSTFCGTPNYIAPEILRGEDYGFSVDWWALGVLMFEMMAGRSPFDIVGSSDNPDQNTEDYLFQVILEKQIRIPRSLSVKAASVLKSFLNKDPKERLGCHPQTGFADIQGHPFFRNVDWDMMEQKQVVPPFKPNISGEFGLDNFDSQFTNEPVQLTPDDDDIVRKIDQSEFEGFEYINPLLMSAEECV
The experiment in a line: PKCι IC50 IMAP fluorescence polarisation assay, full-length enzyme. The assay is classed as biochemical. To be noted: full length PKCi at 15 μM ATP; read-out: IC50 in IMAP assay against full length PKCi.

Where only a bound is given, the exact number is not on record here.

As to `Cc1sc2c(NC[C@@H](N)Cc3ccccc3)nc(-c3ccncc3)nc2c1-c1c(Cl)cccc1C(F)(F)F` [compound 452, (S)-N*1*-[7-(2-Chloro-6-trifluoromethyl-phenyl)-6-methyl-2-pyridin-4-yl-thieno[3,2-d]pyrimidin-4-yl]-3-phenyl-propane-1,2-diamine], the IC50 (as a rule, the concentration at which inhibition is half-maximal) lay in the range of 10 to 40 µM.

`COc1cccc(Cl)c1-c1c(C)sc2c(NC[C@@H](N)Cc3ccccc3)nc(-c3ccncc3)nc12` [compound 453, (S)-N*1*-[7-(2-Chloro-6-methoxy-phenyl)-6-methyl-2-pyridin-4-yl-thieno[3,2-d]pyrimidin-4-yl]-3-phenyl-propane-1,2-diamine]: the IC50 lay in the range of 10 to 40 µM.

`COc1cccc(OC)c1-c1c(C)sc2c(NC[C@@H](N)Cc3ccccc3)nc(-c3ccncc3)nc12` [compound 454, (S)-N*1*-[7-(2,6-Dimethoxy-phenyl)-6-methyl-2-pyridin-4-yl-thieno[3,2-d]pyrimidin-4-yl]-3-phenyl-propane-1,2-diamine]: the IC50 was 10 to 40 µM.

As for `COc1cccc(OCC(C)C)c1-c1c(C)sc2c(NC[C@@H](N)Cc3ccccc3)nc(-c3ccncc3)nc12` [compound 455, (S)-N*1*-[7-(2-Isobutoxy-6-methoxy-phenyl)-6-methyl-2-pyridin-4-yl-thieno[3,2-d]pyrimidin-4-yl]-3-phenyl-propane-1,2-diamine], the IC50 lay within 10 to 40 µM.

On to `COc1cnccc1-c1c(C)sc2c(NC[C@@H](N)Cc3ccccc3)nc(-c3ccncc3)nc12` [compound 456, (S)-N*1*-[7-(3-Methoxy-pyridin-4-yl)-6-methyl-2-pyridin-4-yl-thieno[3,2-d]pyrimidin-4-yl]-3-phenyl-propane-1,2-diamine], for which the IC50 lay within 10 to 40 µM.

On to `Cc1nc(C)c(-c2c(C)sc3c(NC[C@@H](N)Cc4ccccc4)nc(-c4ccncc4)nc23)s1` [compound 457, (S)-N*1*-[7-(2,4-Dimethyl-thiazol-5-yl)-6-methyl-2-pyridin-4-yl-thieno[3,2-d]pyrimidin-4-yl]-3-phenyl-propane-1,2-diamine], for which the IC50 was 10 to 40 µM.

As to `Cc1ccc(OC(C)C)c(-c2c(C)sc3c(NC[C@@H](N)Cc4ccccc4)nc(-c4ccncc4)nc23)c1` [compound 458, (S)-N*1*-[7-(2-Isopropoxy-5-methyl-phenyl)-6-methyl-2-pyridin-4-yl-thieno[3,2-d]pyrimidin-4-yl]-3-phenyl-propane-1,2-diamine], the IC50 fell in the range of 10 to 40 µM.

Turning to `Cc1ncccc1-c1c(C)sc2c(NC[C@@H](N)Cc3ccccc3)nc(-c3ccncc3)nc12` [compound 459, (S)-N*1*-[6-Methyl-7-(2-methyl-pyridin-3-yl)-2-pyridin-4-yl-thieno[3,2-d]pyrimidin-4-yl]-3-phenyl-propane-1,2-diamine], the IC50 lay within 10 to 40 µM.

With `Cc1sc2c(NC[C@@H](N)Cc3ccccc3)nc(-c3ccncc3)nc2c1-c1cc(Cl)ccc1OC(C)C` [compound 460, (S)-N*1*-[7-(5-Chloro-2-isopropoxy-phenyl)-6-methyl-2-pyridin-4-yl-thieno[3,2-d]pyrimidin-4-yl]-3-phenyl-propane-1,2-diamine], the IC50 lay in the range of 10 to 40 µM.

Consider `COc1ccc(C(C)(C)C)cc1-c1c(C)sc2c(NC[C@@H](N)Cc3ccccc3)nc(-c3ccncc3)nc12` [compound 461, (S)-N*1*-[7-(5-tert-Butyl-2-methoxy-phenyl)-6-methyl-2-pyridin-4-yl-thieno[3,2-d]pyrimidin-4-yl]-3-phenyl-propane-1,2-diamine], for which the IC50 fell in the range of 10 to 40 µM.

With `COc1ccc(C(C)C)cc1-c1c(C)sc2c(NC[C@@H](N)Cc3ccccc3)nc(-c3ccncc3)nc12` [compound 462, (S)-N*1*-[7-(5-Isopropyl-2-methoxy-phenyl)-6-methyl-2-pyridin-4-yl-thieno[3,2-d]pyrimidin-4-yl]-3-phenyl-propane-1,2-diamine], the IC50 fell in the range of 10 to 40 µM.

`CCOc1ccc(Cl)cc1-c1c(C)sc2c(NC[C@@H](N)Cc3ccccc3)nc(-c3ccncc3)nc12` [compound 463, (S)-N*1*-[7-(5-Chloro-2-ethoxy-phenyl)-6-methyl-2-pyridin-4-yl-thieno[3,2-d]pyrimidin-4-yl]-3-phenyl-propane-1,2-diamine]: the 50% inhibitory concentration (IC50) lay in the range of 10 to 40 µM.

`COc1ccc(C(F)(F)F)cc1-c1c(C)sc2c(NC[C@@H](N)Cc3ccccc3)nc(-c3ccncc3)nc12` [compound 464, (S)-N*1*-[7-(2-Methoxy-5-trifluoromethyl-phenyl)-6-methyl-2-pyridin-4-yl-thieno[3,2-d]pyrimidin-4-yl]-3-phenyl-propane-1,2-diamine]: the IC50 is 10 to 40 µM.

As to `COc1ncccc1-c1c(C)sc2c(NC[C@@H](N)Cc3ccccc3)nc(-c3ccncc3)nc12` [compound 465, (S)-N*1*-[7-(2-Methoxy-pyridin-3-yl)-6-methyl-2-pyridin-4-yl-thieno[3,2-d]pyrimidin-4-yl]-3-phenyl-propane-1,2-diamine], the IC50 is 10 to 40 µM.

For the compound `COc1ccc(OC)c(-c2c(C)sc3c(NC[C@@H](N)Cc4ccccc4)nc(-c4ccncc4)nc23)c1` [compound 466, (S)-N*1*-[7-(2,5-Dimethoxy-phenyl)-6-methyl-2-pyridin-4-yl-thieno[3,2-d]pyrimidin-4-yl]-3-phenyl-propane-1,2-diamine], the IC50 lay in the range of 10 to 40 µM.

In the case of `COc1ccc(F)cc1-c1c(C)sc2c(NC[C@@H](N)Cc3ccccc3)nc(-c3ccncc3)nc12` [compound 467, (S)-N*1*-[7-(5-Fluoro-2-methoxy-phenyl)-6-methyl-2-pyridin-4-yl-thieno[3,2-d]pyrimidin-4-yl]-3-phenyl-propane-1,2-diamine], the IC50 is 10 to 40 µM.

In the case of `CC(C)(C)c1sc2c(NC[C@@H](N)Cc3ccccc3)nc(-c3ccncc3)nc2c1-c1ccn[nH]1` [compound 468, (S)-N*1*-[6-tert-Butyl-7-(2H-pyrazol-3-yl)-2-pyridin-4-yl-thieno[3,2-d]pyrimidin-4-yl]-3-phenyl-propane-1,2-diamine], the IC50 lay within 1 to 10 µM.

As to `Cc1c(-c2ccnn2C)sc2c(N[C@@H]3CCNC3)nc(-c3ccncc3)nc12` [compound 469, [7-Methyl-6-(2-methyl-2H-pyrazol-3-yl)-2-pyridin-4-yl-thieno[3,2-d]pyrimidin-4-l]-(R)-pyrrolidin-3-yl-amine], the IC50 was 10 to 40 µM.

Turning to `CCC(C)(C)C(=O)Nc1csc2c(N[C@@H]3CCNC3)nc(-c3ccncc3)nc12` [compound 471, 2,2-Dimethyl-N-[2-pyridin-4-yl-4-((R)-pyrrolidin-3-ylamino)-thieno[3,2-d]pyrimidin-7-yl]-butyramide], the IC50 lay in the range of 10 to 40 µM.

For `CCC(C)(C)C(=O)Nc1csc2c(NC[C@@H](N)Cc3ccccc3)nc(-c3ccncc3)nc12` [compound 472, N-[4-((S)-2-Amino-3-phenyl-propylamino)-2-pyridin-4-yl-thieno[3,2-d]pyrimidin-7-yl]-2,2-dimethyl-butyramide], the IC50 was in the range of 10 to 40 µM.

Regarding `O=C(Nc1csc2c(N[C@@H]3CCNC3)nc(-c3ccncc3)nc12)C1CCCCC1` [compound 473, Cyclohexanecarboxylic acid [2-pyridin-4-yl-4-((R)-pyrrolidin-3-ylamino)-thieno[3,2-d]pyrimidin-7-yl]-amide], the IC50 fell in the range of 10 to 40 µM.

`N[C@H](CNc1nc(-c2ccncc2)nc2c(NC(=O)C3CCCCC3)csc12)Cc1ccccc1` [compound 474, Cyclohexanecarboxylic acid [4-((S)-2-amino-3-phenyl-propylamino)-2-pyridin-4-yl-thieno[3,2-d]pyrimidin-7-yl]-amide]: the IC50 was 10 to 40 µM.

For `O=C(Nc1csc2c(N[C@@H]3CCNC3)nc(-c3ccncc3)nc12)C1CCCC1` [compound 475, Cyclopentanecarboxylic acid [2-pyridin-4-yl-4-((R)-pyrrolidin-3-ylamino)-thieno[3,2-d]pyrimidin-7-yl]-amide], the IC50 lay in the range of 10 to 40 µM.

In the case of `N[C@H](CNc1nc(-c2ccncc2)nc2c(Nc3ccccc3)csc12)Cc1ccccc1` [compound 485, N*4*-((S)-2-Amino-3-phenyl-propyl)-N*7*-phenyl-2-pyridin-4-yl-thieno[3,2-d]pyrimidine-4,7-diamine], the IC50 was in the range of 0.1 to 1 µM.

As to `N[C@H](CNc1nc(-c2ccncc2)nc2c(Nc3ccccn3)csc12)Cc1ccccc1` [compound 486, N*4*-((S)-2-Amino-3-phenyl-propyl)-2-pyridin-4-yl-N*7*-pyridin-2-yl-thieno[3,2-d]pyrimidine-4,7-diamine], the IC50 was below 0.1 µM.

In the case of `c1ccc(Nc2csc3c(N[C@@H]4CCNC4)nc(-c4ccncc4)nc23)nc1` [compound 487, 2-Pyridin-4-yl-N*7*- pyridin-2-yl-N*4*-(R)-pyrrolidin-3-yl-thieno[3,2-d]pyrimidine-4,7-diamine], the IC50 was 1 to 10 µM.

With `N[C@H](CNc1nc(-c2ccncc2)nc2c(Nc3ncccn3)csc12)Cc1ccccc1` [compound 488, N*4*-((S)-2-Amino-3-phenyl-propyl)-2-pyridin-4-yl-N*7*-pyrimidin-2-yl-thieno[3,2-d]pyrimidine-4,7-diamine], the IC50 is 0.1 to 1 µM.

Take `N[C@H](CNc1nc(-c2ccncc2)nc2c(Nc3ccncn3)csc12)Cc1ccccc1` [compound 489, N*4*-((S)-2-Amino-3-phenyl-propyl)-2-pyridin-4-yl-N*7*-pyrimidin-4-yl-thieno[3,2-d]pyrimidine-4,7-diamine]: the IC50 was 1 to 10 µM.

The record behind these values is patent US10183950B2, “Thienopyrimidine inhibitors of atypical protein kinase C” (Cancer Research Technology Limited, priority 2011, dated 2019).
